# Where two headings read alike, the source gives them in different places.
# Columns and labels:
# EphA4 = EphA4 (Homo sapiens, UniProt P54764); test: ELISA, ephrin-A5 AP binding to immobilized EphA4 Fc; conditions: for IC50: read-out: IC50 for inhibition of ephrin-A5 AP binding to EphA4
# Experimental: ELISA Assays and K, Determination—Protein A-coated wells (Pierce Biotecnology, Rockford, Ill.) were used to immobilize ephrin Fc fusion proteins (R&D Systems, Minneapolis, Minn.). Compounds at different concentrations were incubated with EphA4 AP (Cheng and Flanagan, (1994) Cell 79(1), 157-168) or EphA2 AP (Koolpe et al. (2002) J Biol Chem 277(49), 46974-46979) for 3 hours. Alternatively, Eph receptor Fc fusion proteins were immobilized on protein A-coated wells and ephrin-A5 AP (Menzel et al. (2001) Developmental Biology 230(1), 74-88) or ephrin-B2 AP (GeneHunter, Nashville, Tenn.) were added with the compounds. The amount of bound AP-fusion protein was quantified using pNPP as the substrate. Alkaline phosphatase activity from wells with Fc only was subtracted as background. To confirm that the binding of the compounds to EphA4 was reversible, the compounds were removed and the wells were incubated in binding buffer for 3 hours before washing and incubating with ephrin AP fusion proteins. Under these conditions, no inhibition of ephrin binding was observed indicating the reversible binding of the compounds.
# To calculate the inhibition constant (KO values, the binding of ephrin-A5 AP to EphA4 Fc immobilized on protein A-coated wells was measured in the absence and in the presence of the compounds at different concentrations. Each data set was fitted to the Michaelis-Menten equation: B=Bmax [S]/(KD+[S]), where [S] is the concentration of ephrin AP fusion protein and KD is the dissociation constant observed in the absence or in the presence of the compound, using non linear regression and the program GraphPad (Prism). To evaluate whether the inhibition is competitive, noncompetitive or uncompetitive the KD and Bmax values were determined at different compound concentrations. The Ki was obtained from the linear regression plot of KD/Bmax as a function of the concentration of the inhibitor according to: KD/Bmax=(KD[S])/(Ki·Bmax)+KD/Bmax. Alternatively, Ki values were obtained from the dose response curves, using the Cheng-Prusoff equation: Ki=IC50/(1+[S]/KD) (XX38, Cheng, Y., and Prusoff, W. H. (1973) Biochemical pharmacology 22(23), 3099-3108). Ephrin-A5 AP concentration were calculated from alkaline phosphatase activity (Flanagan et al. (2000) Methods in Enzymology. 327, 19-35).
# EphA2 [1] = target: T1, EphA2 (Homo sapiens, UniProt P29317); test: EphA2 tyrosine phosphorylation in PC3 cells; format: cell-based; parameters: endogenous in cells; host or cells: PC3
# Experimental: FIGS. 9A-9G. A. PC3 cells pretreated for 15 min with the indicated concentrations of compound 1 or compound 2 were stimulated with 0.5 μg/mL ephrin-A1 Fc (+) or Fc as a control (−) for 20 min in the continued presence of the compounds. EphA2 immunoprecipitates were probed with anti-phosphotyrosine antibody (PTyr) and reprobed for EphA2. C indicates immunoprecipitations performed with control antibodies. B. Histogram showing the levels of EphA2 phosphorylation normalized to the amount of immunoprecipitated EphA2. Error bars indicate standard error from 3 experiments. Receptor phosphorylation levels were compared with those in the ephrin-stimulated cells by one-way ANOVA and Dunnett's post test. *P<0.05 and *P<0.01. C. PC3 cells stimulated with compound 1 as in (A) were stained with rhodamine-phalloidin to label actin filaments and DAPI to label nuclei. DMSO was used as a control (0 μM). […] Cells having rounded shape and area less than 20% of the mean value obtained for the Fc stimulated cells were scored as retracting. […]
# Measurement of Receptor Tyrosine Phosphorylation in Cells—HT22 neuronal cells, which endogenously express EphA4, are derived from immortalized mouse hippocampal neurons (Li et al. (1997) Neuron 19(2), 453-463). […] The protein concentration was calculated using the BCA protein assay kit (Pierce Biotecnology, Rockford, Ill.). […]
# Target sequence in this assay (P29317 24-976): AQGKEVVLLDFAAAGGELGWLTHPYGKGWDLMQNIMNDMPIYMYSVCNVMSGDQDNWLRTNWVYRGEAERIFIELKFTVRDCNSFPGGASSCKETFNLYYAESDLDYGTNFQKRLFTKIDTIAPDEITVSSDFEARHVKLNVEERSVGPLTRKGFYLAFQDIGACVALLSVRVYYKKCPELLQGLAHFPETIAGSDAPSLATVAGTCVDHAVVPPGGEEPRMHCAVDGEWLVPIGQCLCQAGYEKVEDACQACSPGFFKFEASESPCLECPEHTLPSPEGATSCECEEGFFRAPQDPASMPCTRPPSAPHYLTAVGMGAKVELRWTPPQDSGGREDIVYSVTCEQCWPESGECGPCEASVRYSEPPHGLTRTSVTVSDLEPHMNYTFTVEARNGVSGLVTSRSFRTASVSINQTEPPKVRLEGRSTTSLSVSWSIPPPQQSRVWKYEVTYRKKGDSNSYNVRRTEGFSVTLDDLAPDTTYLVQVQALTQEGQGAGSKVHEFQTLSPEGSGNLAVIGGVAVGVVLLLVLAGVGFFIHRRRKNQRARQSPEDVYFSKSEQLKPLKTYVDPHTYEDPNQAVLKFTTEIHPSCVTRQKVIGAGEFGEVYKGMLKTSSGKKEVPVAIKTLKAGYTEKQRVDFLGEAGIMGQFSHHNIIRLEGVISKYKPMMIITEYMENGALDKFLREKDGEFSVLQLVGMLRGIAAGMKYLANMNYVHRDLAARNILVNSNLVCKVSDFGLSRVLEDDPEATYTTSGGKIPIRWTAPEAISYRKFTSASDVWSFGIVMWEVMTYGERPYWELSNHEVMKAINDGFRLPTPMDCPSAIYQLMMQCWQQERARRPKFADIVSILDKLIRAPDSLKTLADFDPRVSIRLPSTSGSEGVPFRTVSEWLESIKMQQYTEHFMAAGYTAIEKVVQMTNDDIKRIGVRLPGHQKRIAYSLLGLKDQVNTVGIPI
# EphA2 [2] = target: T1, EphA2; test: ELISA, EphA2-ephrin-A5 binding; conditions: assuming competitive inhibition; read-out: Ki for inhibition of EphA2-ephrin-A5 binding (Cheng-Prusoff)
# Experimental: ELISA Assays and K, Determination—Protein A-coated wells (Pierce Biotecnology, Rockford, Ill.) were used to immobilize ephrin Fc fusion proteins (R&D Systems, Minneapolis, Minn.). Compounds at different concentrations were incubated with EphA4 AP (Cheng and Flanagan, (1994) Cell 79(1), 157-168) or EphA2 AP (Koolpe et al. (2002) J Biol Chem 277(49), 46974-46979) for 3 hours. Alternatively, Eph receptor Fc fusion proteins were immobilized on protein A-coated wells and ephrin-A5 AP (Menzel et al. (2001) Developmental Biology 230(1), 74-88) or ephrin-B2 AP (GeneHunter, Nashville, Tenn.) were added with the compounds. The amount of bound AP-fusion protein was quantified using pNPP as the substrate. […]
# To calculate the inhibition constant (KO values, the binding of ephrin-A5 AP to EphA4 Fc immobilized on protein A-coated wells was measured in the absence and in the presence of the compounds at different concentrations. Each data set was fitted to the Michaelis-Menten equation: B=Bmax [S]/(KD+[S]), where [S] is the concentration of ephrin AP fusion protein and KD is the dissociation constant observed in the absence or in the presence of the compound, using non linear regression and the program GraphPad (Prism). To evaluate whether the inhibition is competitive, noncompetitive or uncompetitive the KD and Bmax values were determined at different compound concentrations. […]
# Target sequence in this assay (P29317 25-534 limits assumed, species assumed): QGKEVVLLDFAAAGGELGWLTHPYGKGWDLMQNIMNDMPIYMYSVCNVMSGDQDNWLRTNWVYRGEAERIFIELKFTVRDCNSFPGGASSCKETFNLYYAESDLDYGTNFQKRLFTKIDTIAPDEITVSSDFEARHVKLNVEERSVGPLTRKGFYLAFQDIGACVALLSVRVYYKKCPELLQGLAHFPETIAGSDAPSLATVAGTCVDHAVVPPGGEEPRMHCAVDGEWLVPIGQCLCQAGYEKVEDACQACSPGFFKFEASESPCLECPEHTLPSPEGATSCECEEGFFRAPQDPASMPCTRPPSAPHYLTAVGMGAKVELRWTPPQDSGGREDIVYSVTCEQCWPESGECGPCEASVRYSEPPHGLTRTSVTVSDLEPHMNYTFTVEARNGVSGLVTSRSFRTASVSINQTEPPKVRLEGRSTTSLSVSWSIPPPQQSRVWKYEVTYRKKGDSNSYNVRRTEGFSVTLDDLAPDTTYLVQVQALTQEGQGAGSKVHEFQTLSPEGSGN
# [3] = from ephrin-A5 AP binding curves at different compound concentrations, read-out: Ki, competitive inhibition of EphA4-ephrin-A5 binding
# [4] = from other inhibition curves using different ephrin concentrations, read-out: Ki calculated with the Cheng-Prusoff equation, EphA4-ephrin-A5
# [5] = from the inhibition curves shown in FIG. 2, read-out: Ki calculated with the Cheng-Prusoff equation, EphA4-ephrin-A5
# Sequence of EphA4 (P54764 20-547 limits assumed, species assumed): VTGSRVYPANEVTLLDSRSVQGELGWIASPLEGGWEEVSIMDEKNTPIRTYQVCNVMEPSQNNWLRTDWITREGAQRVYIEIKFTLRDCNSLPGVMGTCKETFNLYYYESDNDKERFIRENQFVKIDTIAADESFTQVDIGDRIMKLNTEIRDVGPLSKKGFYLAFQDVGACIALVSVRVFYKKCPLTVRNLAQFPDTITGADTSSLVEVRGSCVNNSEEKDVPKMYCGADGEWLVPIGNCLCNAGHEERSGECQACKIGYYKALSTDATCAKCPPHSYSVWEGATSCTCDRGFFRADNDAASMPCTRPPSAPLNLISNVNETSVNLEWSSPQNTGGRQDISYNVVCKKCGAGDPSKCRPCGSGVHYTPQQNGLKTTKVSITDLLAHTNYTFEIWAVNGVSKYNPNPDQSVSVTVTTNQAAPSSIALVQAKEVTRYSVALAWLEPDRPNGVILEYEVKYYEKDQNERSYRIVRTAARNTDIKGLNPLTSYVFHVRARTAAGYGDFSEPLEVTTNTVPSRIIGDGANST
Structure (SMILES),inhibition of EphA4-ephrin-A5 binding (in words) (EphA4),"reversibility of binding to EphA4 (EphA4; compounds removed, 3 hours in binding buffer before ephrin AP)",Ki (EphA4; [3]),Ki (EphA4; [4]),Ki (EphA4; [5]),IC50 (EphA4),EphA2 activation following stimulation with ephrin-A1 Fc (EphA2 [1]),Ki (EphA2 [2])
"Cc1ccc(C)n1-c1ccc(C(=O)O)c(O)c1 [compound 1, 4-(2,5-dimethyl-pyrrol-1-yl)-2-hydroxy-benzoic acid]",inhibit,binds reversibly,8 µM,6 to 10 µM,10 µM,13 µM,blocked,11 to 14 µM
"Cc1ccc(C)n1-c1ccc(O)c(C(=O)O)c1 [compound 2, 5-(2,5 dimethyl-pyrrol-1-yl)-2-hydroxy-benzoic acid]",inhibit,–,7 µM,6 to 8 µM,6 µM,9 µM,blocked,10 to 13 µM

# — patent US20100256214A1, “EPH RECEPTOR LIGANDS AND METHODS OF USE” (Burnham Institute for Medical Research, priority 2009, published 2010)
